# According to article PMC10520499, “Next step in the development of mesoprogestins: the preclinical profile of EC313” (Frontiers in Endocrinology, 2023):
# How the values were obtained:
# GR = target: T1, GR (Homo sapiens, UniProt P04150); experiment: GR transactivation (HELA, MMTV-LUC); format: cell-based; design: HELA cells line carrying endogenous glucocorticoid protein; endogenous in cells; host or cells: HELA, stably transfected with the reporter only
# T1 sequence (P04150 1-777): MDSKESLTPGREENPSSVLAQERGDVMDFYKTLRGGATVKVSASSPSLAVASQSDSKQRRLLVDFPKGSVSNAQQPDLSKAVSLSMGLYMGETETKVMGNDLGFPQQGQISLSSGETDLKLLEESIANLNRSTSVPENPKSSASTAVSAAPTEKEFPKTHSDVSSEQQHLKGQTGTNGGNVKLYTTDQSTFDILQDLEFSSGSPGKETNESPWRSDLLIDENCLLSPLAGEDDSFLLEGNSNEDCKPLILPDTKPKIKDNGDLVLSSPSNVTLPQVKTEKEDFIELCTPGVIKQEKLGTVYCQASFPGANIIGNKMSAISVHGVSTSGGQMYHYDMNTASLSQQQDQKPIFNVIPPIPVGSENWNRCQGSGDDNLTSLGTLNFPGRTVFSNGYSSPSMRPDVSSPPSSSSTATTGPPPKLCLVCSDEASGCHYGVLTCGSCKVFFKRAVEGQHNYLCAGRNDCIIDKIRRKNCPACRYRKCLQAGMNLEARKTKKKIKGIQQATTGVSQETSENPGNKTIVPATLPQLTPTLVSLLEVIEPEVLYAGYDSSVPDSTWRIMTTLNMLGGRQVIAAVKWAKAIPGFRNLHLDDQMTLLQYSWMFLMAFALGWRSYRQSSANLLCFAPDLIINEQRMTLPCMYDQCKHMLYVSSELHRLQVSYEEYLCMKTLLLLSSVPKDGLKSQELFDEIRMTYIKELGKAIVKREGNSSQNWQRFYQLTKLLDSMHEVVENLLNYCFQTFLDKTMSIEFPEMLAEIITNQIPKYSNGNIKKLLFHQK
# Method: HELA cells line carrying endogenous glucocorticoid protein were cultured in order to study gene expression on the transcriptional level under the influence of the tested compounds. The cells were transfected with reporter vector MMTV/LUC. To produce high protein overexpression, stable transfection was carried out. […] Agonist and antagonist properties of EC313 toward tested receptor GR were analyzed using luminescence detection.
# In order to develop the transfection assay, plasmids were generated and isolated. Vector pGL4.36 coding the glucocorticoid receptor responsive element MMTV and firefly luciferase reporter vector [luc2P/Hygro] were used as a reporter system (pGL4.36-MMTV/LUC). The cells were transfected with reporter vector MMTV/LUC.
# stable transfection with reporter vector was performed on a 6-well plate (0.5x10^6 cells per well) in culture medium (EMEM, 10% FBS, NEAA, sodium […], L-glutamine). Briefly, according to the transfection procedure, cells were passaged, and they grew in a culture medium containing an appropriate concentration of the antibiotic (Hygromycin 150 µg/mL). Resistance to Hygromycin gene, which had been transfected together with the reporter vector to the cells, only allowed positively transfected cells to grow in this medium. Therefore, growing cell clones were selected for further steps as stable transfectants.
# After 24h incubation of cells with the tested compounds, luciferase activity was measured using VICTOR™ X Multilabel Plate Reader -Perkin Elmer.
# [1] = system: human uterine fibroid xenografts; design: method as in PMID 31754172; conditions: ref [2], cited from earlier work
# [2] = target: T2, human estrogen receptor α (Homo sapiens, UniProt P03372); experiment: Competitive binding, human estrogen receptor α; conditions: ERα, full length
# T2 construct: coding for the full length human estrogen receptors α and β, respectively, were obtained from GenScript; made in house; host or cells: HI (Hi5) insect cells, baculovirus; cellular lysate
# Method: The study aimed to characterize the competitive binding profile of EC313 to relevant human nuclear receptors. For the assays, commercially available ‘ligand binding domain’ proteins were purchased (Thermo Fisher Scientific). In addition, the full-length receptor proteins were expressed in transfected HI insect cells using the `Bac-to-bac Baculovirus expression system´ (Thermo Fisher Scientific). Cellular lysates served as receptor preparation. Receptor protein preparations were incubated with tritiated reference ligands and EC313 or reference steroids at concentrations between 0.1 and 1000 nM for 2h at 4°C to reach equilibrium. Subsequently, unbound steroids were adsorbed to dextran-coated charcoal (Sigma Aldrich), separated by filtration, and the remaining radioactivity was quantified in a ß-counter (Perkin Elmer). Displacement curves were fitted using the GraphPad Prism 7 free version to obtain EC50 values. Relative binding affinity (RBA [%], (C50ref/C50test)*100) and the competition coefficient (C50test/C50ref) were used to describe the relative binding potency of EC313 compared to the reference ligands.
# There are two subtypes of estrogen receptors (ER), ERα and ERβ, coded in different genes. Plasmids pFastBac1-ERa and pFastBac1-ERb, coding for the full length human estrogen receptors α and β, respectively, were obtained from GenScript. […]
# PR-B – NCoR = target: T3, PR-B – NCoR (Homo sapiens, UniProt P06401); experiment: PR-B – NCoR interaction, two-hybrid system; format: cell-based
# T3 construct: expressed in transfected cells
# Excerpt: The active recruitment of the nuclear corepressor NCoR results in transcriptional inactivity of the PR. So, the potency of PR ligands to induce the interaction of PR with NCoR provides information on the antagonistic potency of the ligand. Therefore, the capacity of EC313 to induce the interaction of PR-B with the corepressor NCoR in comparison with reference ligands was studied. All test compounds except the receptor agonist Promegestone induced PR to interact with NCoR.
# Figure 11 (A) PR-B interaction with NCoR using a two-hybrid assay. Dose response curve. […] (B) Liganded PR-Binteraction with c-SRC kinase. The data presented are from five independent experiments. Signals are represented as mean luminescence ± SD normalized to maximal promegestone activity equal to 100%.
# [3] = system: progesterone receptor (PRA, PRB) in T47D cells; experiment: PR nuclear translocation in T47D cells (Western blot); format: cell-based, human; conditions: 100 nM, compared to Promegestone, Mifepristone or Asoprisnil
# Method: Subsequently, progesterone receptors present in nuclear as well as cytosolic fractions were stained using Western blotting.
# […] (constitutively expressing the progesterone receptor) were treated with 100 nM of EC313 or reference compounds to activate PR. After 6h and after 24h cells were lysed, the nuclear and cytosolic fractions were separated and Western blots of these fractions were prepared.
# Blots were stained for PRA and PRB as well as the housekeeping proteins GAPDH (as a marker for the cytosolic fraction) and histone H3 (as a marker for the nuclear fraction). Nuclear and cytoplasmic proteins from […] were extracted after cell stimulation with PR ligands and the nuclear and cytoplasmic fractions were analyzed for PRB and PRA content using Western blotting.
# T3 sequence (P06401 whole entry): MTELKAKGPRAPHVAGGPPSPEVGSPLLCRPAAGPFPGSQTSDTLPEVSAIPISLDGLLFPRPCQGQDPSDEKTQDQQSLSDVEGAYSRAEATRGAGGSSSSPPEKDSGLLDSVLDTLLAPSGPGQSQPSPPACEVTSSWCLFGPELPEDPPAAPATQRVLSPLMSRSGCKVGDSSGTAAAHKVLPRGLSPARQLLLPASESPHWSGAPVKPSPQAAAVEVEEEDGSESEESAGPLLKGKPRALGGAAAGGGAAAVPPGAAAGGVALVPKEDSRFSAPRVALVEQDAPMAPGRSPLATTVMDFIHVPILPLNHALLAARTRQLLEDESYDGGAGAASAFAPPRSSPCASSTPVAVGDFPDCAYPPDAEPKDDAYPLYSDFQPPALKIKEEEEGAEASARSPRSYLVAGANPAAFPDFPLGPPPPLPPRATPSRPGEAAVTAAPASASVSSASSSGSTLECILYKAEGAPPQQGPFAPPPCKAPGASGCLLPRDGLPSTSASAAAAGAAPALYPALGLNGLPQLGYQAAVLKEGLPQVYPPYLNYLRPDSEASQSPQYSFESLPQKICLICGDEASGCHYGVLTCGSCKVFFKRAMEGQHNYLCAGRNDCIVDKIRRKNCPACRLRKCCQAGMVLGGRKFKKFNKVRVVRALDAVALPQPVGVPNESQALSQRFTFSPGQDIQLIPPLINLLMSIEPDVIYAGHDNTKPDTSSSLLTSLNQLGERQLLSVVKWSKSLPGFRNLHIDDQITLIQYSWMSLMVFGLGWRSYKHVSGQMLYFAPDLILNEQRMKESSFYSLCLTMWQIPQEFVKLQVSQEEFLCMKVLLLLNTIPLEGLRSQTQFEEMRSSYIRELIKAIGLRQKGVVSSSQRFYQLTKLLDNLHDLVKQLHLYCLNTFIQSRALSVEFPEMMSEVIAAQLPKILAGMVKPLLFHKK
# T3 sequence (O75376 whole entry partner): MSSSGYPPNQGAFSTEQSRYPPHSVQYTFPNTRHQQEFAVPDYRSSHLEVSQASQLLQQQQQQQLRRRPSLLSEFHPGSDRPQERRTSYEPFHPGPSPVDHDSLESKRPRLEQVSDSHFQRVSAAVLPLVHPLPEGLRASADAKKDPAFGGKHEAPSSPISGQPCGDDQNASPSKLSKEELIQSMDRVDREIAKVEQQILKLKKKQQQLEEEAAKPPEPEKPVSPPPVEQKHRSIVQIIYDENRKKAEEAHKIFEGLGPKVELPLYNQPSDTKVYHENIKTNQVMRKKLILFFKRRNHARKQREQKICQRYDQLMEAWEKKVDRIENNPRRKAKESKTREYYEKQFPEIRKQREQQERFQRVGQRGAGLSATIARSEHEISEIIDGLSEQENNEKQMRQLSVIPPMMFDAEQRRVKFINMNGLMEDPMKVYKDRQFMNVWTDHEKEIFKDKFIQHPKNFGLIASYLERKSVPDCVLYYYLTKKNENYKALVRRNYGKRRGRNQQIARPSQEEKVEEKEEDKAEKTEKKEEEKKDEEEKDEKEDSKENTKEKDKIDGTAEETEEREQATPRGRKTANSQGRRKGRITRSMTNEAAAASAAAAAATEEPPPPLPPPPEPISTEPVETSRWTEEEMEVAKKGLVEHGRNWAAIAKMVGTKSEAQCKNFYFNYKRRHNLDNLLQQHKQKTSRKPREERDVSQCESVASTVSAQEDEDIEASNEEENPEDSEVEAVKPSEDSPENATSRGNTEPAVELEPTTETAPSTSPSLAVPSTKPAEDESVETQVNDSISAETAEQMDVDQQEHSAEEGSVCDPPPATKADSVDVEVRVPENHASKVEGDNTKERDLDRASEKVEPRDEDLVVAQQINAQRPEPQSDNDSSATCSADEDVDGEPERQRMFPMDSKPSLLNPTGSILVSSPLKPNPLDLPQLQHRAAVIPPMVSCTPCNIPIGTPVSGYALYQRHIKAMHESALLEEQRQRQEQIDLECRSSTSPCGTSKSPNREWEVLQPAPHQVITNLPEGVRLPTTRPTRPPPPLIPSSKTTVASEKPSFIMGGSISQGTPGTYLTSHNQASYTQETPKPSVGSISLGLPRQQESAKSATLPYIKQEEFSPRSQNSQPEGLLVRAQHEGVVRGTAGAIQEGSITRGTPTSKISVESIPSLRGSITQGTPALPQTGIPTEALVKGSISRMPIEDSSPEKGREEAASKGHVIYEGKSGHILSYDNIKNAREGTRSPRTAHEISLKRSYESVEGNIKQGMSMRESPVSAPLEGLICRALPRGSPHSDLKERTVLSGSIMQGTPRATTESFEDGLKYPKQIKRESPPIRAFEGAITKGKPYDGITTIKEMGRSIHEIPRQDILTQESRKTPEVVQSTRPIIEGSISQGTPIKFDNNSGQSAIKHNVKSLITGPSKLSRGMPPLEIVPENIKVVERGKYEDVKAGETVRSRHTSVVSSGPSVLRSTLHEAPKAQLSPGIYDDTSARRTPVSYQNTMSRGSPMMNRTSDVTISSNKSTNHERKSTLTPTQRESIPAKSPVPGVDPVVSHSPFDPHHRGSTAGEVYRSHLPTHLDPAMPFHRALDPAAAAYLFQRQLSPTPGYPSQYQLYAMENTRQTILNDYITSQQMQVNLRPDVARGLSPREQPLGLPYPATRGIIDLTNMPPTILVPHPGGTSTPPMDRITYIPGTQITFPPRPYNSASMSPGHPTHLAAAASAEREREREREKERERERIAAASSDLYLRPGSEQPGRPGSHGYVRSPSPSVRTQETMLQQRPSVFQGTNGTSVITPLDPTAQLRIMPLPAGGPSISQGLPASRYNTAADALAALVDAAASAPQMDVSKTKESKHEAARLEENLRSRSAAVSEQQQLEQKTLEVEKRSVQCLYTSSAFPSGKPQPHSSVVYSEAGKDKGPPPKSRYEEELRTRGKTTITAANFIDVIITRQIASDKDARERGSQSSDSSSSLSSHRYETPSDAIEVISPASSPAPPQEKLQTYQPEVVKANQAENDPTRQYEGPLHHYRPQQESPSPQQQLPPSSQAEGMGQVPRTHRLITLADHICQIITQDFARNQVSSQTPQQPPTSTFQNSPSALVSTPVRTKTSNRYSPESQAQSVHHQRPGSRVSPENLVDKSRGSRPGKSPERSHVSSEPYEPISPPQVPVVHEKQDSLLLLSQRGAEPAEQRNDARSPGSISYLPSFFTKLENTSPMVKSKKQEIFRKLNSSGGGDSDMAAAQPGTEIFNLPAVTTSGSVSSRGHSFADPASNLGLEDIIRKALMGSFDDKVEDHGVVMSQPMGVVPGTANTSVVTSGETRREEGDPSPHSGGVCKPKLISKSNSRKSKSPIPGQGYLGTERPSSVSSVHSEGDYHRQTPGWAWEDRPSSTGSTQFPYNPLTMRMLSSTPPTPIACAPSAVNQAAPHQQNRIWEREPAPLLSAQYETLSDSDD
# T2 sequence (P03372 whole entry): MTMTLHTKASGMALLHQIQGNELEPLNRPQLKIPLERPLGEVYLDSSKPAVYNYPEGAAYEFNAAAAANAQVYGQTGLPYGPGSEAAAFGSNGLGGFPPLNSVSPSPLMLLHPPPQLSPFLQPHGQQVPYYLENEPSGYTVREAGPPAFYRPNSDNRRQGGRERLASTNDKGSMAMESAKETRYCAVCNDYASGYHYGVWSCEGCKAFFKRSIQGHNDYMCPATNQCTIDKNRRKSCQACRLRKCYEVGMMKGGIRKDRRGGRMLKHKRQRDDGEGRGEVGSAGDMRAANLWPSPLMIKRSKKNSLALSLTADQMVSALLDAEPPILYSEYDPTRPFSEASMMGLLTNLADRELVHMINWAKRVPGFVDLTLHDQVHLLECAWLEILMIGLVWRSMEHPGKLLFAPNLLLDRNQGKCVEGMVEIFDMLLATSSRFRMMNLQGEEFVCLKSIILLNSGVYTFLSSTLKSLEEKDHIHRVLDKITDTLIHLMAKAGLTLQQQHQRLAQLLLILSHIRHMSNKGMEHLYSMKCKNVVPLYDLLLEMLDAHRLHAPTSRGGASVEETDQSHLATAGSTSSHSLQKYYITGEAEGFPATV
smiles,measurement,setting,value
C[C@]12C[C@H](c3ccc(-c4ccoc4)cc3)C3=C4CCC(=O)C=C4CC[C@H]3[C@@H]1CC[C@]21OCCC1=C(F)F [EC313],activity on GR in transactivation,GR,weak inhibitor
same,IC50,"GR; comparative transactivation profile, read-out: Potency, GR Antagonism",100 nM
same,uterine fibroid markers desmin and collagen,"[1]; Part A, 0.1 and 1.0 mg EC313/kg/day",markedly reduced
same,fibroid xenograft weight,"[1]; Part A, 0.1 and 1.0 mg/kg/day s.c., 60 days",reduced the fibroid xenograft weight dose-dependently
same,levels of ER and PR in grafts (immunohistochemistry),"[1]; Part A, vs control p< 0.001, vs UPA p< 0.01",reduced
same,E2-induced proliferation in xenograft fibroids,"[1]; Part A, vs control, p< 0.0001",blocked significantly
same,"lowest effective dosage, uterine fibroid model",[1]; demonstrated previously,0.1 mg/kg/day s.c.
same,competitive displacement of [3H]-estradiol,[2],did not cause any competitive displacement
same,"efficacy relative to Ulipristal acetate, NCoR interaction",PR-B – NCoR,83%
same,"fold lower potency than Ulipristal acetate, NCoR interaction",PR-B – NCoR,200 fold
same,induction of PR interaction with NCoR,PR-B – NCoR,limited ability to induce progesterone receptor interaction with NCoR
same,receptors retained in the nuclear fraction after 24 hours,[3],retained more receptors in the nuclear fraction
